# Literature values, collected in paper PMC3791449, “Mechanism of amyloid β−protein dimerization determined using single−molecule AFM force spectroscopy” (Scientific Reports, 2013).
# System: Aβ(13−23) dimer
# Conditions: antiparallel β−sheet structures; cited from earlier work
substance,measurement,value
"Aβ(13−23): Aβ(13−23) peptide of published MD simulations (HHQKLVFFAED; Amyloid-beta protein 42; UniProt P05067 684-694, looked up, fragment)",dimer stability by MD simulation,high dimer stability
